Literature values as cited in patent publication US12378579B2, “Method to produce the anti-microbial diterpenoid leubethanol and related serrulatane-type diterpenes” (priority 2020, dated 2025).

Tested on: multi-drug-resistant tuberculosis
Settings: pure compound from Leucophyllum frutescens; background statement

For `CC(C)=CCC[C@H](C)[C@@H]1CC[C@@H](C)c2c(O)cc(C)cc21` [leubethanol], the “activity against multi-drug resistant tuberculosis” value is listed as “demonstrated activity”.
